Results on 14 compounds are retold here after patent US20120088661A1, “FUNGICIDAL MIXTURES” (BASF SE, priority 2009, published 2012).

Experiment [1] concerns Septoria tritici. In words: Use Example G5: greenhouse, protective activity against Septoria leaf blotch of wheat caused by Septoria tritici (Septtr P1). It is filed as in vivo, Septoria tritici on wheat seedlings. Here is the method: (§1) The active compounds were prepared separately or jointly as a stock solution with 25 mg of active compound which was made up to 10 ml using a mixture of acetone and/or DMSO and the emulsifier Wettol EM 31 (wetting agent having emulsifying and dispersing action based on ethoxylated alkylphenols) in a volume ratio of solvent:emulsifier of 99:1. The mixture was then made up with water to 100 ml. This stock solution was diluted with the solvents/emulsifier/water mixture described to give the active compound concentrations stated below. Alternatively, the active compounds were used as commercial finished formulation and diluted with water to the stated active compound concentration. The active compound orysastrobin was used as a commercially available formulation, and diluted with water with reference to the active compound.
(§2) The visually determined values for the percentage of infected leaf area were initially converted into a mean value and then converted into efficacies in % of the untreated control. An efficacy of 0 means the same degree of infection as in the untreated control, an efficacy of 100 means 0% infection. The expected efficacies for the active compound combinations were determined using Colby's formula (Colby, S. R. “Calculating synergistic and antagonistic responses of herbicide combinations”, Weeds, 15, pp. 20-22, 1967) and compared to the observed efficacies.
Leaves of potted wheat seedlings were sprayed to run off point with an aqueous suspension having the active compound concentration stated below. 24 hours after the spray coating had dried on, they were inoculated with an aqueous spore suspension of Septoria tritici. The test plants were then placed in a greenhouse at temperatures between 18 and 22° C. and a relative atmospheric humidity close to 100% for four days and then at temperatures between 18 and 22° C. and an atmospheric humidity of about 70%. After 21 days, the extent of the development of the disease was determined visually in % infection of the total leaf area.

For experiment [2], the system named is Phakopsora pachyrhizi. In words: Use Example G4: greenhouse, curative activity against soybean rust caused by Phakopsora pachyrhizi (Phakpa K4). It is filed as in vivo, Phakopsora pachyrhizi on soybean seedlings. As for the experimental part:
as §1, §2
Leaves of potted soybean seedlings were inoculated with a spore suspension of soybean rust (Phakpsora pachyrhizi). The pots were then placed in a chamber of high atmospheric humidity (90 to 95%) and 20 to 24° C. for 24 hours. During this time, the spores germinated and the germ tubes penetrated into the leaf tissue. The infected plants were then cultivated further in a greenhouse at temperatures between 23 and 27° C. and 60 to 80% relative atmospheric humidity. After three days, the plants were sprayed to run off point with the active compound solution described above at the active compound concentration stated below. After the spray coating had dried on, the test plants were cultivated in a greenhouse at temperatures between 23 and 27° C. and 60 to 80% relative atmospheric humidity for a further 10 days. The extent of the rust fungus development on the leaves was then determined visually in %.

In experiment [3] the test system is Botrytis cinerea. Put plainly: Use Example G2: greenhouse, activity against grey mold on bell pepper leaves caused by Botrytis cinerea, 1 day protective application (Botrci P1). The experiment is classed as in vivo, Botrytis cinerea on bell pepper seedlings. As for the experimental part: as §1, §2
Bell pepper seedlings were, after 2-3 leaves were well developed, sprayed to run off point with an aqueous suspension having the active compound concentrations stated below. The next day, the treated plants were inoculated with a spore suspension of Botrytis cinerea in a 2% biomalt solution. The test plants were then placed in a dark climatized chamber at 22 to 24° C. and high atmospheric humidity. After 5 days, the extent of the fungal infection on the leaves could be determined visually in %.

Experiment [4] deals with Alternaria solani. The experiment is classed as in vivo, Alternaria solani on tomato plants. The settings on record: 16 ppm.
Experiment [5] relates to Puccinia recondita. In words: Use Example G3: greenhouse, protective activity against Puccinia recondita on wheat (brown rust of wheat) (Puccrt P1). The experiment is classed as in vivo, Puccinia recondita on wheat seedlings. Here is the method: as §1, with “The active compound orysastrobin was used as a commercially available formulation, and diluted with water with reference to the active compound.” left out
The visually determined values for the percentage of infected leaf area were initially converted into a mean value and then converted into efficacies in % of the untreated control. […] The expected efficacies for the active compound combinations were determined using Colby's formula (Colby, S. R. “Calculating synergistic and antagonistic responses of herbicide combinations”, Weeds, 15, pp. 20-22, 1967) and compared to the observed efficacies.
Leaves of potted wheat seedlings were sprayed to run off point with an aqueous suspension having the active compound concentration stated below. […] The extent of rust fungus development on the leaves was then determined visually.

Experiment [6] deals with Colleotrichum truncatum. Put plainly: Use Example M9: activity against Colleotrichum truncatum in the microtiter test (Colltr). It is filed as cell-based.
In experiment [7] the test system is Septoria glycines. In words: Use Example M8: activity against Septoria glycines in the microtiter test (Septgl). The experiment is classed as cell-based.
Experiment [8] deals with Phytophthora infestans. Put plainly: microbe, parasite or virus in culture. The experiment is classed as cell-based.
The test system of experiment [9] is Botrytis cinerea. In words: Use Example M2: activity against the gray mold pathogen Botrytis cinerea in the microtiter test (Botrci). The experiment is classed as cell-based.
Setting [10] is: Septoria glycines, read-out: Observed effect.

`O=C1C2CC=CCC2C(=O)N1SC(Cl)(Cl)Cl` (centres unmarked) [captan]: the Observed effect in experiment [1] (16 ppm), in [2] (1 ppm) and in experiment [2] (4 ppm) was 0% throughout.
For the compound mancozeb [II-18], the Observed effect in [3] (250 ppm) is 15%; in [4], 0%; in experiment [5] (4 ppm) it was 5%; in experiment [1] (16 ppm) it was 3%; in experiment [1] (63 ppm), 18%; in experiment [2] (16 ppm), 7%. For the same compound, the Observed effect in experiment [2] (63 ppm) was found to be 0%.
Consider “2-[trans-3-(2-chlorophenyl)-2-(2,4-difluorophenyl)oxiranylmethyl]-2,4-dihydro-[1,2,4]triazole-3-thione [Example I-1]”, for which the Observed effect in experiment [6] (1 ppm) was 5%; in [6] (16 ppm) it was 6%; in [6] (63 ppm), 30%; in [3] (4 ppm), 2%; in [7] (16 ppm), 30%; in [7] (63 ppm), 61%. Moreover, the Observed effect is given as 41% in experiment [1] (4 ppm), 3% in experiment [8] (1 ppm), 14% in experiment [8] (16 ppm) and 53% in experiment [8] (63 ppm).
In the case of “2-[trans-3-(2-chlorophenyl)-2-(3,4-difluorophenyl)oxiranylmethyl]-2H-[1,2,4]triazole-3-thiol [Example I-3]”, the values for the Observed effect in experiment [9] (4 ppm), in experiment [9] (63 ppm) and in experiment [8] (63 ppm) were 8%, 25% and 31%, respectively.
With `COC(=O)N(OC)c1ccccc1COc1ccn(-c2ccc(Cl)cc2)n1` [II-9, pyraclostrobin], the results for the Observed effect in experiment [9] (0.016 ppm) and in experiment [6] (0.016 ppm) were 8% and 7%, respectively. In addition, the inhibition of growth at 0.016 ppm worked out at 69% in experiment [7] (setting [10]) and 13% in experiment [8] (Phytophthora infestans, read-out: Observed effect, 0.016 ppm).
Regarding `CNC(=O)/C(=N/OC)c1ccccc1CO/N=C(C)/C(=N/OC)C(/C)=N/OC` [II-10, orysastrobin], the Observed effect was determined as 13% in [9] (1 ppm), 29% in [6] (4 ppm) and 22% in [8] (1 ppm).
In the case of `CO/N=C(/C1=NOCCO1)c1ccccc1Oc1ncnc(Oc2ccccc2Cl)c1F` [II-57, fluoxastrobin], the Observed effect in experiment [2] (1 ppm) is 15%.
With `Cc1cc(C2CC2)nc(Nc2ccccc2)n1` [II-36, cyprodinil], the Observed effect in experiment [1] (4 ppm) was determined as 0%.
As for `N#CSc1ncnn1C[C@]1(c2ccc(F)cc2F)O[C@H]1c1ccccc1Cl` (relative stereo) [Example I-8, 1-[trans-3-(2-chlorophenyl)-2-(2,4-difluorophenyl)oxiranylmethyl]-5-thiocyanato-1H-[1,2,4]triazole], the Observed effect in experiment [9] (16 ppm) came out at 19%; in [8] (4 ppm), 7%.
Regarding `CCCN(CCOc1c(Cl)cc(Cl)cc1Cl)C(=O)n1ccnc1` [II-46, prochloraz], the inhibition of growth at 0.001 ppm in experiment [7] (setting [10]) is 11%. The Observed effect in experiment [1] (1 ppm) turned out to be 0%; in experiment [2] (1 ppm), 7%.
Regarding `CC(C)(C)C(O)(CCc1ccc(Cl)cc1)Cn1cncn1` (centres unmarked) [II-3, tebuconazole], the Observed effect in experiment [3] (1 ppm) is reported as 0%.
In the case of `COC(=O)C(C)N(C(=O)Cc1ccccc1)c1c(C)cccc1C` (centres unmarked) [benalaxyl], the Observed effect in experiment [4] is listed as 2%; in experiment [1] (250 ppm), 0%.
For `O=C(Nc1ccccc1-c1ccc(Cl)cc1)c1cccnc1Cl` [II-24, boscalid], the inhibition of growth at 0.016 ppm in experiment [7] (setting [10]) came out at 10%. Also, in [7] (Septoria glycines, 0.04 ppm, read-out: Observed effect), the inhibition of growth at 0.04 ppm turned out to be 9%. Also, the Observed effect in experiment [5] (1 ppm) came to 13%. The inhibition of growth at 16 ppm in experiment [8] (Phytophthora infestans, read-out: Observed effect, 16 ppm) was 20%.
Take `N#Cc1c(Cl)c(Cl)c(Cl)c(C#N)c1Cl` [II-21, chlorothalonil]: the Observed effect in experiment [9] (1 ppm) is reported as 40%; in experiment [1] (4 ppm), 0%. For the same compound, the inhibition of growth at […] in experiment [7] (Septoria glycines, 0.063 ppm, read-out: Observed effect) is 6%.
